Consider one compound from patent US6462045B1, “Method of treating pulmonary hypertension” (Orion Corporation, priority 1998, dated 2002).

Assay [1] concerns patient with pulmonary hypertension. The experiment in a line: Experiment 2: levosimendan infusion for 5.5 hrs in a patient with pulmonary hypertension, mean pulmonary artery pressure. It is filed as in vivo, human. As for the experimental part:
Levosimendan was administered by infusion (0.1-0.4 μg/kg/min) to a patient with pulmonary hypertension in amounts of 0.1, 0.2 and 0.4 μg/kg/min for 5.5 hrs. At 0.25 h the infusion rate was 0.1 μg/kg/min, at 2.00 h the infusion rate was increased to 0.2 μg/kg/min and at 4.5 h the infusion rate was increased to 0.4 μg/kg/min. The change in the mean pulmonary artery pressure (MPAP) was determined.
Table 1. The change of mean pulmonary artery pressure (NPAP) during levosimendan infusion. 0.25 h infusion rate 0.1 μg/kg/min, 2.00 h infusion rate 0.2 μg/kg/min, 4.5 h infusion rate 0.4 μg/kg/min.

In a further assay the test system is patients. The assay is described as follows: Experiment 1: levosimendan infusion for 24 hrs in 95 patients, change in mean pulmonary artery pressure. The format is in vivo, human. To be noted: infusion 0.05, 0.1, 0.2, 0.4 and 0.6 μg/kg/min for 24 hrs, FIG. 1. As for the experimental part:
Levosimendan (LS) was administered by infusion (0.05-0.6 μg /kg/min) to totally 95 patients (n=14-23 per group) in amounts of 0.05, 0.1, 0.2, 0.4 and 0.6 μg/kg/min for 24 hrs. The change in the mean pulmonary artery pressure was determined.
------ is placebo, --O-- is vehicle, --[…]-- is dobutamine,
— is LS 0.05 μg/kg/min, —C— is LS 0.1 μg/kg/min, —□— is LS 0.2 μg/kg/min,
—⋄— is LS 0.4 μg/kg/min, —Δ— is LS 0.6 μg/kg/min

Turning to `CC1CC(=O)NN=C1c1ccc(NN=C(C#N)C#N)cc1` (single isomer, unassigned; (-)) [levosimendan, (−)-[[4-(1,4,5,6-tetrahydro-4-methyl-6-oxo-3-pyridazinyl)phenyl]hydrazono]propanedinitrile], in assay [1] (infusion 0.1, 0.2 and 0.4 μg/kg/min for 5.5 hrs, one patient with pulmonary hypertension), the “change in the mean pulmonary artery pressure (MPAP)” value was “able to significantly lower pulmonary artery pressure”. For the same compound, the MPAP in assay [1] (time 0 h (before the 0.1 μg/kg/min infusion rate at 0.25 h)) worked out at 41 mmHg; in assay [1] (time 0.75 h, infusion rate 0.1 μg/kg/min) it was 42 mmHg; in assay [1] (time 1.25 h, infusion rate 0.1 μg/kg/min), 42 mmHg; in assay [1] (time 1.75 h, infusion rate 0.1 μg/kg/min), 39 mmHg; in assay [1] (time 2.50 h, infusion rate 0.2 μg/kg/min), 34 mmHg; in assay [1] (time 3.00 h, infusion rate 0.2 μg/kg/min) it was 35 mmHg. Further, the MPAP in assay [1] (time 3.50 h, infusion rate 0.2 μg/kg/min) amounted to 35 mmHg; in assay [1] (time 4.00 h, infusion rate 0.2 μg/kg/min) it was 32 mmHg; in assay [1] (time 5.00 h, infusion rate 0.4 μg/kg/min) it was 27 mmHg; in assay [1] (time 5.50 h, infusion rate 0.4 μg/kg/min) it was 29 mmHg. Moreover, the “change in the mean pulmonary artery pressure” value in the assay with patients is reported as “able to significantly lower pulmonary artery pressure”.
